# ChEMBL document CHEMBL1201861, “Genomics of Drug Sensitity in Cancer screening data, Wellcome Trust Sanger Institute”
# Tests used:
# Test in all cases: cells
# Raji = assay type: functional, cell-based, Homo sapiens; details: Homo sapiens, Raji;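 note: cell viability assay measuring inhibition of Raji cell growth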
# Description: SANGER: Inhibition of human Raji cell growth in a cell viability assay.
# CA46 = assay type: functional, cell-based, Homo sapiens; details: Homo sapiens, CA46;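 note: growth inhibition of human CA46 cells, read out by a cell viability assay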
# Description: SANGER: Inhibition of human CA46 cell growth in a cell viability assay.
# KMOE-2 = assay type: functional, cell-based, Homo sapiens; details: Homo sapiens, KMOE-2;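 note: growth inhibition of human KMOE-2 cells, read out with a cell viability assay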
# Description: SANGER: Inhibition of human KMOE-2 cell growth in a cell viability assay.
# BC-3 = assay type: functional, cell-based, Homo sapiens; details: Homo sapiens, BC-3;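 note: cell viability assay measuring growth inhibition of human BC-3 cells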
# Description: SANGER: Inhibition of human BC-3 cell growth in a cell viability assay.
# EHEB = assay type: functional, cell-based; details: Homo sapiens;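 note: growth inhibition of human EHEB cells, read out with a cell viability assay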
# Description: SANGER: Inhibition of human EHEB cell growth in a cell viability assay.
# NCI-H716 = assay type: functional, cell-based, Homo sapiens; details: Homo sapiens, NCI-H716;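 note: growth inhibition of human NCI-H716 cells, measured by a cell viability assay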
# Description: SANGER: Inhibition of human NCI-H716 cell growth in a cell viability assay.
# NCI-H64 = assay type: functional, cell-based, Homo sapiens; details: Homo sapiens, NCI-H64;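 note: growth inhibition of NCI-H64 cells, read out with a cell viability assay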
# Description: SANGER: Inhibition of human NCI-H64 cell growth in a cell viability assay.
# NB14 = assay type: functional, cell-based, Homo sapiens; details: Homo sapiens, NB14;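 note: growth inhibition of NB14 cells measured with a cell viability assay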
# Description: SANGER: Inhibition of human NB14 cell growth in a cell viability assay.
# GDM-1 = assay type: functional, cell-based, Homo sapiens; details: Homo sapiens, GDM-1; read-out: IC50;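 note: cell viability readout used to measure growth inhibition of human GDM-1 cells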
# Description: SANGER: Inhibition of human GDM-1 cell growth in a cell viability assay.
# RL95-2 = assay type: functional, cell-based, Homo sapiens; details: Homo sapiens, RL95-2;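 note: RL95-2 growth inhibition determined through a cell viability readout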
# Description: SANGER: Inhibition of human RL95-2 cell growth in a cell viability assay.
# IST-SL2 = assay type: functional, cell-based, Homo sapiens; details: Homo sapiens, IST-SL2;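 note: growth inhibition of human IST-SL2 cells, read out by a cell viability assay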
# Description: SANGER: Inhibition of human IST-SL2 cell growth in a cell viability assay.
# D-336MG = assay type: functional, cell-based, Homo sapiens; details: Homo sapiens, D-336MG
# Description: SANGER: Inhibition of human D-336MG cell growth in a cell viability assay.
# UACC-812 = assay type: functional, cell-based; details: Homo sapiens
# Description: SANGER: Inhibition of human UACC-812 cell growth in a cell viability assay.
# D-542MG = assay type: functional, cell-based; details: Homo sapiens
# Description: SANGER: Inhibition of human D-542MG cell growth in a cell viability assay.
# EW-22 = assay type: functional, cell-based; details: Homo sapiens;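 note: growth inhibition of the EW-22 cell line, measured with a cell viability readout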
# Description: SANGER: Inhibition of human EW-22 cell growth in a cell viability assay.
Compound,IC50 (Raji) [µM],IC50 (CA46) [µM],IC50 (KMOE-2) [µM],IC50 (BC-3) [µM],IC50 (EHEB) [µM],IC50 (NCI-H716) [µM],IC50 (NCI-H64) [µM],IC50 (NB14) [µM],IC50 (GDM-1) [µM],IC50 (RL95-2) [nM],IC50 (IST-SL2) [nM],IC50 (D-336MG) [nM],IC50 (UACC-812) [nM],IC50 (D-542MG) [nM],IC50 (EW-22) [nM]
C=CC(=O)N1CCCC(Nc2nc(Nc3ccc(N(C)C(=O)CC)cc3)nc3[nH]cnc23)C1 (stereo not drawn),> 10.2,> 10.2,> 10.2,9.06,> 10.2,> 10.2,> 10.2,> 10.2,> 10.2,> 10200,> 10200,8000,,,
COc1ccc(N(C(=O)Oc2c(C)cccc2C)c2ccnc(Nc3ccc(N4CCN(C)CC4)cc3)n2)c(OC)c1,> 5.12,> 5.12,> 5.12,> 5.12,> 5.12,> 5.12,> 5.12,> 5.12,> 5.12,1320,1470,46.8,,,
Cc1cc(N2CCOCC2)cc2[nH]c(-c3c(NC[C@@H](O)c4cccc(Cl)c4)cc[nH]c3=O)nc12,> 5.12,> 5.12,> 5.12,4.34,> 5.12,> 5.12,> 5.12,> 5.12,> 5.12,813,> 5120,872,,,
NC(=O)c1cccc(-c2cc(Nc3ccc(OC(F)(F)F)cc3)ncn2)c1,> 1.28,> 1.28,> 1.28,> 1.28,> 1.28,> 1.28,> 1.28,> 1.28,> 1.28,> 1280,> 1280,> 1280,,,
CC(C)C[C@H](NC(=O)[C@H](Cc1ccccc1)NC(=O)c1cnccn1)B(O)O [BORTEZOMIB],0.00446,> 0.02,0.00223,0.00661,0.00167,> 0.02,0.00244,0.018,0.00677,3.79,1.31,0.657,> 20,0.329,> 20
